Reference: paper PMC11051419, “Structural Insights into the Marine Alkaloid Discorhabdin G as a Scaffold towards New Acetylcholinesterase Inhibitors” (Marine Drugs, 2024)
Where two headings read alike, the source gives them in different places.

Columns and labels:
[1] = target: T1, horse serum butyrylcholinesterase (BChE) (Equus caballus, UniProt P81908); experiment: Inhibition of horse serum butyrylcholinesterase (modified Ellman method); type: biochemical; details: for IC50: Ellman method, pH 7.4, 25 °C, 3 as acetate salt; for type of inhibition against BChE: kinetic analysis, Dixon plot (Figure S4)
T1 construct: human recombinant AChE (hAChE), and horse serum BChE; purchased Sigma-Aldrich; host or cells: horse serum
T1 sequence (P81908 whole entry): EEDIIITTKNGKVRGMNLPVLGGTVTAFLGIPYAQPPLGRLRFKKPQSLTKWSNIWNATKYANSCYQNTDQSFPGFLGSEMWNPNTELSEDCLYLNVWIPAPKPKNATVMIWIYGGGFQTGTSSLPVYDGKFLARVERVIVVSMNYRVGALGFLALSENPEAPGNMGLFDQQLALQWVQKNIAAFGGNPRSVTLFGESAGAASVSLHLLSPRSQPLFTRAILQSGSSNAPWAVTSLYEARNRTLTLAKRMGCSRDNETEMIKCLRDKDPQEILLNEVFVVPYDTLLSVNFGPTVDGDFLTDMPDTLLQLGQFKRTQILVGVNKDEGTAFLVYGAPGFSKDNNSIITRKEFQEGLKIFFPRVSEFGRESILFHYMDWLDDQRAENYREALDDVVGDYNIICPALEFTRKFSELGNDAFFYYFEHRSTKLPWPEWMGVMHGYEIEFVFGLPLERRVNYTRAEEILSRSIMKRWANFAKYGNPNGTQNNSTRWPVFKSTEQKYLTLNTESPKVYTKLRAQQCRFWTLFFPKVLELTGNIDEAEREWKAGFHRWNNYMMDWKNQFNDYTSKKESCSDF
Method: (§1) The inhibition of cholinesterase activity was determined using a modification of the Ellman method, which was adapted for microtiter plates. Stock solutions of 3, 7, and 8 (2 mg/mL) were prepared in pure EtOH. […] Stock solutions of the potential inhibitors and the positive controls were added to the microtiter plate wells and progressively diluted in 100 mM potassium phosphate buffer (pH 7.4) to a final volume of 50 μL. Then, 100 μL acetylthiocholine chloride (1 mM) and 5,5′-dithiobis-2-nitrobenzoic acid (0.5 mM) in 100 mM potassium phosphate buffer (pH 7.4) was added into the microtiter plate wells. The cholinesterases that were used (eeAChE, hAChE, and BChE; all from Sigma-Aldrich, St. Louis, MO, USA) were dissolved in 100 mM potassium phosphate buffer (pH 7.4) to a final concentration of 0.0075 U/mL. Each cholinesterase solution (50 μL) was added into the microtiter plate wells to start the reaction, which was followed spectrophotometrically at 405 nm at 25 °C over 5 min using a kinetic microplate reader (Dynex Technologies Inc., Chantilly, VA, USA). Blank reactions without inhibitors were run with the appropriate dilutions of EtOH, and the readings were corrected according to the corresponding blanks. Each measurement was repeated at least three times. […] The data were analyzed using the OriginPro software (OriginPro 2021 (9.8), OriginLab Corporation, Northampton, MA, USA).

[2] = target: T2, electric eel acetylcholinesterase (eeAChE) (Electrophorus electricus, UniProt O42275); experiment: Inhibition of electric eel acetylcholinesterase (modified Ellman method); type: biochemical; details: for Ki: Dixon plot, substrate 0.125, 0.25, 0.5 mM; for Ki / IC50: 3 as acetate salt; for IC50: Ellman method, pH 7.4, 25 °C; for type of inhibition against eeAChE: kinetic analysis, Dixon plot (Figure S4)
T2 construct: purchased Sigma-Aldrich
T2 sequence (O42275 24-633): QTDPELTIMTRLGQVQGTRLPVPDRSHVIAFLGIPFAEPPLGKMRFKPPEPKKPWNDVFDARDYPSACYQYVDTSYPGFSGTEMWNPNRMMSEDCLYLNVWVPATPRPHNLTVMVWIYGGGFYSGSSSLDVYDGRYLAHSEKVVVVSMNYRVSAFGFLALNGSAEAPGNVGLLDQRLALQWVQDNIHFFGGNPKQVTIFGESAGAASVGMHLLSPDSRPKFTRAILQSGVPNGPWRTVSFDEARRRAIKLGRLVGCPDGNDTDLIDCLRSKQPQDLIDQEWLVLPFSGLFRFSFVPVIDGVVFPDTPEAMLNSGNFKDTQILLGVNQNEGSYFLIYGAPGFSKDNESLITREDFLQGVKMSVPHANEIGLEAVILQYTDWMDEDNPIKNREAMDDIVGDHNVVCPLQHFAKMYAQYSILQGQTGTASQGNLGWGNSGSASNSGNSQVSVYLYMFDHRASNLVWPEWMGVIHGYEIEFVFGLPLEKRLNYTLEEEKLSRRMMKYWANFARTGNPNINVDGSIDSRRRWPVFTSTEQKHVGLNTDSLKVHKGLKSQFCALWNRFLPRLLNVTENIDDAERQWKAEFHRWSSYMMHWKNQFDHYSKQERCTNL
Method: as §1

[3] = target: T3, human recombinant acetylcholinesterase (hAChE) (Homo sapiens, UniProt P22303); experiment: Inhibition of human recombinant acetylcholinesterase (modified Ellman method); type: biochemical; details: for Ki: Dixon plot, substrate 0.125, 0.25, 0.5 mM; for Ki / IC50: 3 as acetate salt; for IC50: Ellman method, pH 7.4, 25 °C; for type of inhibition against hAChE: kinetic analysis, Dixon plot (Figure S4)
T3 construct: purchased Sigma-Aldrich
T3 sequence (P22303 32-614): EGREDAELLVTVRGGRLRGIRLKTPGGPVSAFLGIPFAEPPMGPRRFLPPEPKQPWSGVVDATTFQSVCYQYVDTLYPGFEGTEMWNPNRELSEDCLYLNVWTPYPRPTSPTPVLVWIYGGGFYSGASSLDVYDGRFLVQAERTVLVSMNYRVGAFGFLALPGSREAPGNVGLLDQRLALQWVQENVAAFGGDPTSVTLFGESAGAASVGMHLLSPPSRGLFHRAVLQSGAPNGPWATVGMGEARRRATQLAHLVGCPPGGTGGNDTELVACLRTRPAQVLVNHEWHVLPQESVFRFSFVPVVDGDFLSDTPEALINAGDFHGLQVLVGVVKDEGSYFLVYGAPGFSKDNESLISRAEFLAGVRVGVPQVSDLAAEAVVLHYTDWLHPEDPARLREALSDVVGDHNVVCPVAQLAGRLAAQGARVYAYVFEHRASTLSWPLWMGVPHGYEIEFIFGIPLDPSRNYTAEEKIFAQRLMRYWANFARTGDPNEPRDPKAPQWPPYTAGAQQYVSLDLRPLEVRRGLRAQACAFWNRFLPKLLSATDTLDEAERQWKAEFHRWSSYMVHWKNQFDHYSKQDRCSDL
Method: as §1

[4] = target: T2, electric eel acetylcholinesterase (eeAChE); details: cited from earlier work
[5] = target: T3, human recombinant acetylcholinesterase (hAChE); details: cited from earlier work
[6] = target: T1, horse serum butyrylcholinesterase (BChE); details: cited from earlier work
[7] = tested on: neuromuscular transmission or skeletal muscle function; details: electrophysiological study; cited from earlier work
[8] = discorhabdin G as trifluoroacetate (TFA) salt, ref Botić et al. [5]

Compound | IC50 [1] [µM] | type of inhibition against BChE [1] | Ki [2] [µM] | IC50 [2] [µM] | type of inhibition against eeAChE [2] | Ki [3] [µM] | IC50 [3] [µM] | type of inhibition against hAChE [3] | also measured
Cc1nc2c3n1CCN=C3c1ccccc1C2=O [Compound 3, 5-methyl-2H-benzo[h]imidazo[1,5,4-de]quinoxalin-7(3H)-one] | > 400 | reversible competitive | 7.3 | 13.5 | reversible competitive | 5.8 | 16.9 | reversible competitive | –
Cc1nc2c(o1)C(=O)c1ccccc1C2=O [Compound 7, 2-methylnaphtho[2,3-d]oxazole-4,9-dione] | 145 | reversible competitive | 65 | 188 | reversible competitive | 50 | 234 | reversible competitive | Ki ([1]; Dixon plot, substrate 0.125, 0.25, 0.5 mM): 50 µM
CC(=O)NC1=C2NCCN=C2c2ccccc2C1=O [Compound 8, N-(6-oxo-2,3,4,6-tetrahydrobenzo[f]quinoxalin-5-yl)acetamide] | > 400 | – | – | > 400 | – | – | > 400 | – | –
CN(C)C(=O)Oc1cccc([N+](C)(C)C)c1 [Neostigmine methylsulfate, reference compound] | 83.7 | – | – | 6 | – | – | – | – | –
discorhabdin G [Compound 1] | – | – | – | – | – | – | – | – | IC50 [4, 8]: 1.3 µM; Ki [4, 8]: 1.6 µM; type of inhibition against eeAChE ([4]; previously observed): reversible competitive; IC50 [5, 8]: 116 µM; Ki [5, 8]: 56.2 µM; type of inhibition against hAChE ([5]; previously observed): reversible competitive; IC50 [6, 8]: 7 µM; Ki [6, 8]: 5 µM; type of inhibition against BChE ([6]; previously observed): reversible competitive; adverse effects on neuromuscular transmission or skeletal muscle function [7]: no adverse effects
